Results reported in ChEMBL document CHEMBL1201862, “PubChem BioAssay data set” (2004).
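Interpolation was linear, between the two tested concentrations surrounding the appropriate level; five concentrations were tested over 48 hours in 96-well plates. At the GI50, growth is halved.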 Active and inactive are the calls of the source. Rule as the data show it: active = GI50 up to about 1.1 µM and inactive = higher.

What was measured:
Assay in all cases: NCI anticancer screen, dose series, 48 h
HCT-15 = system: HCT-15
OVCAR-3 = system: OVCAR-3
SK-OV-3 = system: SK-OV-3
NCI-H460 = system: NCI-H460
SK-MEL-28 = system: SK-MEL-28
SF-268 = system: SF-268
SW-620 = system: SW-620
NCI-H23 = system: NCI-H23
COLO 205 = system: COLO 205
CAKI-1 = system: CAKI-1
HL-60 = system: HL-60
OVCAR-8 = system: OVCAR-8
MOLT-4 = system: MOLT-4
U-251 = system: U-251
HT-29 = system: HT-29
IGROV-1 = system: IGROV-1
EKVX = system: EKVX
CCRF-CEM = system: CCRF-CEM
OVCAR-4 = system: OVCAR-4
RXF 393 = system: RXF 393

**Q.** What does the source list for `CC(=O)c1c(P(=O)(OC(C)C)OC(C)C)nn(-c2ccc([N+](=O)[O-])cc2)c1C`?
**A.** GI50 (HCT-15): > 100 µM; GI50 (OVCAR-3): > 100 µM (inactive); GI50 (SK-OV-3): > 100 µM (inactive); GI50 (NCI-H460): > 100 µM (inactive); GI50 (SK-MEL-28): > 100 µM (inactive); GI50 (SF-268): > 100 µM (inactive); GI50 (SW-620): > 100 µM (inactive); GI50 (NCI-H23): > 100 µM (inactive); GI50 (COLO 205): > 100 µM (inactive); GI50 (CAKI-1): > 100 µM (inactive); GI50 (HL-60): > 100 µM (inactive); GI50 (OVCAR-8): > 100 µM (inactive); GI50 (MOLT-4): > 100 µM (inactive); GI50 (U-251): > 100 µM (inactive); GI50 (HT-29): > 100 µM (inactive); GI50 (IGROV-1): > 100 µM (inactive); GI50 (EKVX): > 100 µM (inactive); GI50 (CCRF-CEM): > 100 µM (inactive); GI50 (OVCAR-4): > 100 µM (inactive)

**Q.** Which GI50 (HCT-15) does the source give for `CC1(C)OP(=O)(c2ccccc2)C=C1Sc1ccc([N+](=O)[O-])cc1[N+](=O)[O-]` (stereo unspecified) here?
**A.** 65.5 µM

**Q.** And the GI50 (OVCAR-3)?
**A.** 30.4 µM (inactive)

**Q.** What about the GI50 (SK-OV-3) of the same compound?
**A.** > 100 µM (inactive)

**Q.** And the GI50 (NCI-H460)?
**A.** > 100 µM (inactive)

**Q.** And the GI50 (SK-MEL-28)?
**A.** 85.1 µM (inactive)

**Q.** And the GI50 (SF-268)?
**A.** 52.1 µM (inactive)

**Q.** What about the GI50 (SW-620) of the same compound?
**A.** 65.5 µM (inactive)

**Q.** And the GI50 (NCI-H23)?
**A.** 77.6 µM (inactive)

**Q.** What about the GI50 (COLO 205) of the same compound?
**A.** > 100 µM (inactive)

**Q.** And the GI50 (CAKI-1)?
**A.** > 100 µM (inactive)

**Q.** What about the GI50 (HL-60) of the same compound?
**A.** 15.9 µM (inactive)

**Q.** And the GI50 (OVCAR-8)?
**A.** 62.1 µM (inactive)

**Q.** And the GI50 (U-251)?
**A.** 54.7 µM (inactive)

**Q.** What about the GI50 (HT-29) of the same compound?
**A.** 45.6 µM (inactive)

**Q.** And the GI50 (IGROV-1)?
**A.** > 100 µM (inactive)

**Q.** What about the GI50 (EKVX) of the same compound?
**A.** > 100 µM (inactive)

**Q.** What about the GI50 (OVCAR-4) of the same compound?
**A.** 29.7 µM (inactive)

**Q.** Which GI50 (RXF 393) does the source give for `O=C1c2cccc3cc4ccccc4c(c23)C(=O)N1CCNCCNCCNCCN1C(=O)c2cccc3cc4ccccc4c(c23)C1=O` here?
**A.** < 0.01 µM (active)

**Q.** What about the GI50 (HCT-15) of the same compound?
**A.** < 0.01 µM

**Q.** And the GI50 (OVCAR-3)?
**A.** < 0.033 µM (active)

**Q.** What about the GI50 (NCI-H460) of the same compound?
**A.** < 0.01 µM (active)

**Q.** And the GI50 (SK-MEL-28)?
**A.** < 0.01 µM (active)

**Q.** What about the GI50 (SF-268) of the same compound?
**A.** < 0.01 µM (active)

**Q.** And the GI50 (SW-620)?
**A.** < 0.01 µM (active)

**Q.** And the GI50 (NCI-H23)?
**A.** < 0.01 µM (active)

**Q.** And the GI50 (COLO 205)?
**A.** < 0.01 µM (active)

**Q.** What about the GI50 (CAKI-1) of the same compound?
**A.** < 0.01 µM (active)

**Q.** And the GI50 (HL-60)?
**A.** < 0.01 µM (active)

**Q.** What about the GI50 (OVCAR-8) of the same compound?
**A.** < 0.01 µM (active)

**Q.** What about the GI50 (MOLT-4) of the same compound?
**A.** < 0.01 µM (active)

**Q.** And the GI50 (U-251)?
**A.** < 0.01 µM (active)

**Q.** What about the GI50 (HT-29) of the same compound?
**A.** < 0.01 µM (active)

**Q.** And the GI50 (IGROV-1)?
**A.** < 0.01 µM (active)

**Q.** What about the GI50 (EKVX) of the same compound?
**A.** 0.129 µM (active)

**Q.** And the GI50 (CCRF-CEM)?
**A.** < 0.01 µM (active)

**Q.** And the GI50 (OVCAR-4)?
**A.** < 0.01 µM (active)

**Q.** For `NC1=NS(=O)(=O)Nc2[nH]c(-c3ccccc3)nc21`, which GI50 (RXF 393) is on record?
**A.** > 100 µM (inactive)

**Q.** What about the GI50 (HCT-15) of the same compound?
**A.** > 100 µM

**Q.** And the GI50 (OVCAR-3)?
**A.** > 100 µM (inactive)

**Q.** And the GI50 (SK-OV-3)?
**A.** > 100 µM (inactive)

**Q.** And the GI50 (NCI-H460)?
**A.** > 100 µM (inactive)

**Q.** And the GI50 (SK-MEL-28)?
**A.** > 100 µM (inactive)

**Q.** What about the GI50 (SF-268) of the same compound?
**A.** > 100 µM (inactive)

**Q.** And the GI50 (SW-620)?
**A.** > 100 µM (inactive)

**Q.** And the GI50 (NCI-H23)?
**A.** > 100 µM (inactive)

**Q.** What about the GI50 (COLO 205) of the same compound?
**A.** > 100 µM (inactive)

**Q.** What about the GI50 (HL-60) of the same compound?
**A.** > 100 µM (inactive)

**Q.** What about the GI50 (OVCAR-8) of the same compound?
**A.** > 100 µM (inactive)

**Q.** And the GI50 (MOLT-4)?
**A.** > 100 µM (inactive)

**Q.** What about the GI50 (U-251) of the same compound?
**A.** > 100 µM (inactive)

**Q.** And the GI50 (HT-29)?
**A.** > 100 µM (inactive)

**Q.** And the GI50 (IGROV-1)?
**A.** > 100 µM (inactive)

**Q.** What about the GI50 (EKVX) of the same compound?
**A.** > 100 µM (inactive)

**Q.** And the GI50 (CCRF-CEM)?
**A.** > 100 µM (inactive)

**Q.** What about the GI50 (OVCAR-4) of the same compound?
**A.** > 100 µM (inactive)

**Q.** With `O=C1C=C(Nc2ccc(Br)cc2)c2ccccc2C1=O` as the compound, how does the GI50 (RXF 393) read?
**A.** 16.7 µM (inactive)

**Q.** What about the GI50 (HCT-15) of the same compound?
**A.** 5.26 µM

**Q.** And the GI50 (OVCAR-3)?
**A.** 7.1 µM (inactive)

**Q.** And the GI50 (SK-OV-3)?
**A.** 16.8 µM (inactive)

**Q.** What about the GI50 (NCI-H460) of the same compound?
**A.** 7.28 µM (inactive)

**Q.** And the GI50 (SK-MEL-28)?
**A.** 17.2 µM (inactive)

**Q.** And the GI50 (SF-268)?
**A.** 13.5 µM (inactive)

**Q.** And the GI50 (SW-620)?
**A.** 12.9 µM (inactive)

**Q.** And the GI50 (NCI-H23)?
**A.** 3.33 µM (inactive)

**Q.** What about the GI50 (COLO 205) of the same compound?
**A.** 17 µM (inactive)

**Q.** What about the GI50 (HL-60) of the same compound?
**A.** 4.51 µM (inactive)

**Q.** And the GI50 (OVCAR-8)?
**A.** 12.5 µM (inactive)

**Q.** And the GI50 (MOLT-4)?
**A.** 10.9 µM (inactive)

**Q.** And the GI50 (U-251)?
**A.** 4 µM (inactive)

**Q.** What about the GI50 (HT-29) of the same compound?
**A.** 17.5 µM (inactive)

**Q.** What about the GI50 (IGROV-1) of the same compound?
**A.** 14.8 µM (inactive)

**Q.** And the GI50 (EKVX)?
**A.** 18.5 µM (inactive)

**Q.** And the GI50 (CCRF-CEM)?
**A.** 11 µM (inactive)

**Q.** And the GI50 (OVCAR-4)?
**A.** 2.09 µM (inactive)

**Q.** Which results are given for `CC(=O)OC/C=C/Cn1ncc(=O)[nH]c1=O`?
**A.** GI50 (RXF 393): > 100 µM (inactive); GI50 (HCT-15): > 100 µM; GI50 (OVCAR-3): > 100 µM (inactive); GI50 (NCI-H460): > 100 µM (inactive); GI50 (SK-MEL-28): > 100 µM (inactive); GI50 (SF-268): > 100 µM (inactive); GI50 (SW-620): > 100 µM (inactive); GI50 (NCI-H23): > 10 µM (inactive); GI50 (COLO 205): > 100 µM (inactive); GI50 (CAKI-1): > 100 µM (inactive); GI50 (HL-60): > 100 µM (inactive); GI50 (OVCAR-8): > 100 µM (inactive); GI50 (MOLT-4): > 100 µM (inactive); GI50 (U-251): > 100 µM (inactive); GI50 (HT-29): > 100 µM (inactive); GI50 (IGROV-1): > 100 µM (inactive); GI50 (EKVX): > 100 µM (inactive); GI50 (CCRF-CEM): > 10 µM (inactive)
